{"source": "patent US20240269158A1", "about": "“THERAPEUTIC AGENTS AND METHODS FOR TREATMENT OF BARTONELLOSIS” (THE ADMINISTRATORS OF THE TULANE EDUCATIONAL FUND, priority 2021, published 2024)", "origin": "cited, not measured here", "test_system": "B. henselae", "details": "cited from earlier work"}
{"smiles": "CC[C@H]1OC(=O)[C@H](C)[C@@H](O[C@H]2C[C@@](C)(OC)[C@@H](O)[C@H](C)O2)[C@H](C)[C@@H](O[C@@H]2O[C@H](C)C[C@H](N(C)C)[C@H]2O)[C@](C)(O)C[C@@H](C)CN(C)[C@H](C)[C@@H](O)[C@]1(C)O", "note": "[Azithromycin, azithromycin]", "values": [{"measurement": "activity against growing bacterial culture", "setting": "growing culture", "value": "effective"}, {"measurement": "activity against stationary phase B. henselae", "setting": "stationary phase", "value": "very poor activity"}]}
